Source: patent US20250161287A1, “METHODS, COMPOSITIONS, AND COMBINATIONS FOR PREVENTING OR TREATING CANCER RECURRENCE” (VUJA DE SCIENCES, INC., priority 2022, published 2025)

What was measured:
JAK1 = JAK1 (Homo sapiens, UniProt P23458); conditions: cited from earlier work
K7M2 OS cell line [1] = experiment: 2D growth / cytotoxicity by MTT, K7M2; format: cell-based, mouse
Experimental: The number of viable cells present in 2D culture was determined by MTT as previously reported. Briefly, cells were plated in 96-well plates at 2,000 cells/well and incubated at 37° C. for 24 h. […] After 72 h, MTT reagent (20 L/well of a 5 mg/mL stock solution in sterile water; Sigma, St. Louis, MO) was added to each well and the plate was incubated at 37° C. for 2 h. DMSO ([…]) was then added to each well to solubilize the formazan crystals.
(§1) The resulting absorbance was measured at 490 nm via plate reader (Molecular Devices, San Jose, CA). DMSO (0.1%) was used as vehicle control, while 20 μM rapamycin was used as a positive cell-kill control. The experimental conditions were conducted in triplicate and each experiment was repeated three times. Regression lines and IC50's were calculated using a four-parameter variable slope nonlinear fit in GraphPad Prism.

MG63.3 OS cell line [2] = experiment: 2D growth / cytotoxicity by MTT, MG63.3; conditions: MG63.3, MTT, exposures up to 1 μM / assessed exposures
Experimental: The number of viable cells present in 2D culture was determined by MTT as previously reported. Briefly, cells were plated in 96-well plates at 2,000 cells/well and incubated at 37° C. for 24 h. After 24 h, the media was replaced with fresh media containing drugs at the desired concentrations (10 pM-10 μM) and incubated at 37° C. for 72 h. After 72 h, MTT reagent (20 L/well of a 5 mg/mL stock solution in sterile water; Sigma, St. Louis, MO) was added to each well and the plate was incubated at 37° C. for 2 h. DMSO ([…]) was then added to each well to solubilize the formazan crystals.
as §1

K7M2 OS cell line [3] = experiment: in vitro 3D BME assay with K7M2 OS cell line; format: cell-based, mouse; conditions: K7M2, Day 6 MTS, at or below 1 μM
Source text: (§2) 3D basement membrane extract (BME) assay was developed at the NCI Barkan (D. Barkan et al. 2008; Dalit Barkan and Green 2011; Hen and Barkan 2020). BME is purified from Engelbreth-Holm-Swarm (EHS) tumor, primarily made up of laminin, collagen IV, entactin, and heparin sulfate proteoglycans (Cultrex Reduced Growth Factor Basement Membrane Extract, PathClear n.d.), which allows it to more accurately reflect the 3D extracellular environment in the body.
(§3) Initially >150 selected therapeutic agents were tested on BME based on the likelihood for either a positive effect or a […] negative effect (as negative controls). […] These therapeutic agents were also tested in dose response (as broad as 1 pM-100 μM) for 2D cytotoxicity (MTT) and the IC50 was calculated. Where required, the hits from the initial screen were also further characterized at additional doses <100 nM in order to further determine the relative selectivity compared to the 2D IC50.
(§4) The influence of drug exposure on the metastatic phenotype was assessed in an in vitro assay of ME and escape from dormancy using a 3D BME assay as previously reported, which was adapted for use with OS cells.
(§5) Cultrex® PathClear, Reduced Growth Factor Basement Membrane Extract (BME—Bio-Techne, Minneapolis, MN) was added ([…]) to a 96-well plate and allowed to gel by incubating at 37° C. for ≥30 min. Cells were harvested, washed with DMEM (no glucose, no FBS, Gibco, Grand Island, NY) and centrifuged at 1500 g×5 mins. The media was aspirated and the remaining cell pellet flicked for about 10 s to ensure disaggregation.
(§6) Cells were diluted in assay media containing 2% BME, resuspended vigorously and 150 μL of the cell suspension was added on top of the gelled 3D BME layer. […] Cell numbers were determined in control vehicle (cells in media+0.1% DMSO), or treated wells and were measured on the indicated days by addition of 20 μL/well of MTS reagent (Cell Titer 96 Aqueous One, Promega, Madison, WI), followed by incubation at 37° C. for 2 h and absorbance measurements at 490 nm via plate reader (Molecular Devices, San Jose CA).
(§7) All conditions were conducted in quadruplicate and each experiment was carried out at least 3 separate times. All comparisons were made between treatment and vehicle control at concordant time points. Statistical analyses and non-linear regressions were derived using GraphPad Prism statistical software.

MG63.3 OS cell line [4] = experiment: in vitro 3D BME assay with MG63.3 OS cell line; format: cell-based, human; conditions: MG63.3, Day 6 MTS, at or below 1 μM
Source text: as §2, §3, §4, §5, §6, §7

Sequence of JAK1 (P23458 whole entry, species assumed): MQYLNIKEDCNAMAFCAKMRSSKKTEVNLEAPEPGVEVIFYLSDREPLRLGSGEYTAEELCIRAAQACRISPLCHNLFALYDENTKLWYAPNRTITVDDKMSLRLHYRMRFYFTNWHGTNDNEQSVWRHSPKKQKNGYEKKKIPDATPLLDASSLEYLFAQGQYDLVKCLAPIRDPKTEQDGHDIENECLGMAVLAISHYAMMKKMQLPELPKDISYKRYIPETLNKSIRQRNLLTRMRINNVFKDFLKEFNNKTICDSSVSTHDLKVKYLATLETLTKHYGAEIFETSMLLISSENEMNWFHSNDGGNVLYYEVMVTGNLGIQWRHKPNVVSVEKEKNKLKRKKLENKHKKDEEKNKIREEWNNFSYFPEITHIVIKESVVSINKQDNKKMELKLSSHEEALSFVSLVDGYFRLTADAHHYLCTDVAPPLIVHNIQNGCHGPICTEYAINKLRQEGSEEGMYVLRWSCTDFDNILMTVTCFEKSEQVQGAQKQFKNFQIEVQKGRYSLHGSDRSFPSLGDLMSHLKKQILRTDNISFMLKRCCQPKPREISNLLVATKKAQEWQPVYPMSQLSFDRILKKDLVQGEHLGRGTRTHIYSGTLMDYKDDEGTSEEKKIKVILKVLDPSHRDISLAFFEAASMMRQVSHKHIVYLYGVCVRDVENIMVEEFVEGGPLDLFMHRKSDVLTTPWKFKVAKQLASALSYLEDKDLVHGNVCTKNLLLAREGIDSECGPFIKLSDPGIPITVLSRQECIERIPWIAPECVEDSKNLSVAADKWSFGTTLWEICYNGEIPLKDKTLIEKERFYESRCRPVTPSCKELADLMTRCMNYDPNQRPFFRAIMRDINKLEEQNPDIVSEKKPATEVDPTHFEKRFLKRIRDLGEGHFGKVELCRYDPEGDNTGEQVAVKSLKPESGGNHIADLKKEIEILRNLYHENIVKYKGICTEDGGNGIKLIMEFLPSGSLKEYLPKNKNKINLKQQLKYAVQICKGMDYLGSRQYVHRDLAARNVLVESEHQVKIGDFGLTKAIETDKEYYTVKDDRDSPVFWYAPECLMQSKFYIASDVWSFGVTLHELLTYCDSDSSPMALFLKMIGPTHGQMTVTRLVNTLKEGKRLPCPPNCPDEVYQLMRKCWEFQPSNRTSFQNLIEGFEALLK

CNS(=O)(=O)C[C@H]1CC[C@H](N(C)c2ncnc3[nH]ccc23)CC1 [oclacitinib]
inhibitory action against JAK1 relative to JAK2 (JAK1): 1.8 times
inhibitory action against JAK1 relative to JAK3 (JAK1): 9.9 times
non-cytotoxic drug exposures in 2D (K7M2 OS cell line [1]; K7M2, MTT 72 h, 10 pM-100 μM): below 1 μM
effect on cell number in 2D monolayer (K7M2 OS cell line [1]; K7M2, MTT, exposures up to 1 μM): minimal inhibition of OS cell number
effect on cell number in 2D monolayer (MG63.3 OS cell line [2]): minimal inhibition of OS cell number
effect on metastatic phenotype / 3D growth in 3D BME (words) (K7M2 OS cell line [3]): statistically significant but very minimal inhibition
effect on metastatic phenotype / 3D growth in 3D BME (words) (K7M2 OS cell line [3]; listed as Oclacitinib): statistically significant but very small level of inhibition
effect on metastatic phenotype / 3D growth in 3D BME (words) (MG63.3 OS cell line [4]): did not inhibit MG63.3 cells at any dose
effect on metastatic phenotype / 3D growth in 3D BME (words) (MG63.3 OS cell line [4]; listed as Oclacitinib): no significant effect
